These results are taken from patent US10513529B2, “1,2,4-triazolo-[3,4-b]-1,3,4-thiadiazole derivatives” (GALENICA S.A., priority 2016, dated 2019).

Where only a bound is given, the exact number is not on record here.

Data set [1] deals with UWB1.289 + BRCA1 human ovarian cancer cell line. In words: MTT cytostatic-cytotoxic activity, UWB1.289+BRCA1. As to conditions: for GI50 / IC50: Homo sapiens, UWB1289, UWB1.289+BRCA1, 48 h treatment; for IC50: kills 50% of the cells; for TGI: UWB1.289+BRCA1, 48 h treatment. The format is cell-based. On the procedure:
Human ovarian adenocarcinoma cells, derived from UBWB1,289, in which the presence of the BRCA1 gene has been restored. […] They are not susceptible to ionizing radiation and radioimmune chemical agents (e.g., alkylating agents). Also, UWB1.289 cells have mutated the p53 tumor suppressor gene, and are positive for the expression of cytokeratin 7 (CK-7), calretinin and Wilms' tumor protein (WT).
(§1) All cancer cell lines are stored in a liquid nitrogen tank in 2.5 ml cryovials (Corning-Costar, Cambridge, Mass.). DMSO (dimethylsulfoxide) act as a cryoprotectant and is added to prevent the formation of ice crystals which may lyse the cells. The Cells were grown as monolayer cultures in T-75 flasks (Corning-Costar, Cambridge, Mass.) and maintained at 37° C. in 5% CO2 incubator & 100% relative humidity. The cultures medium used are McCoy's 5a Medium, supplemented with 10% fetal bovine serum (FBS, Gibco) and 1% antibiotics (100 IU/ml penicillin/100 µg/ml streptomycin), sterilized by filtration (Corning-Costar filter, diameter 0.2 μm, RPMI-1640 and 50% RPMI-1640 (Catalog No 30-2001) plus 50% Mammary Epithelial Growth Medium (MEGM), supplemented with 10% fetal bovine serum (FBS, Gibco) and 1% antibiotics (100 IU/ml penicillin/100 μg/ml streptomycin). The passage is performed every 3-4 to days as follows: Cells are washed with sterile PBS (Phosphate buffered saline): 8 g/l NaCl, 0,2 g/l KCl, 1,15 g/l Na2HPO4καl 0,2 g/l KH2PO4. pH:7,4), add 2-3 ml 0.05% trypsin (Gibco 1:250) and 0.02% EDTA to cover the monolayer and incubate the flask at 3TC for 5-10 minutes. Trypsin-EDTA, is used mainly to detach the cells from the flask and prepare a single cell suspension. Finally, the number of cells can be determined by direct counting using a Neubauer chamber and cell viability is determined by staining the cells with trypan blue.
(§2) In the experimental study the in vitro effect of the compound type (I) was evaluated against ovarian cancer cell lines UWB1.289, UWB1.289+BRCA1 Kai SKOV-3.The cells were plated in 96-well plate (MTP) at a density of 1×10^4cells/m1 per well and maintained for 72 h at 3TC in a 5% CO2 incubator and grown as monolayers. The selection of the initial number of cells was made according to the rate of proliferation of the cell line, in order the cells throughout the experiment are in an exponential (log) growth phase. After 24 hours, cells were treated with 1-100 μmol/l of the tested compounds for 48 h. Experiments were carried out using triplicate wells. The viability of cultured cells was estimated by an (3-(4,5-imethylthiazol-2-yl)-2,5-diphenyltetrazolium bromide (MTT) metabolic assay as described previously (Finlay G J, Wilson W R and Baguley B C: Comparison of in vitro activity of cytotoxic drugs towards human carcinoma and leukaemia cell lines. Eur J Cancer Clin Oncol 22: 655-662, 1986; Alley M C, Scudiero D A, Monks A, Hursey M L, Czerwinski M J, Fine D L, et al. Feasibility of drug screening with panels of human tumor cell lines using a microculture tetrazolium assay. Cancer Res 1988; 48:589-601). MTT (Sigma, St Louis, Mo., USA) was dissolved in PBS in a concentration of 5 mg/ml, filter sterilized, and stored at 4° C. MTT (50 μl of stock solution) was added to each culture and incubated for 3 h at 3TC to allow metabolization. Formazan crystals were solubilized by DMSO (100 μl). Absorbance of the converted dye was measured at a wavelength of 540nm on ELISA reader (BioTek, Winooski, Vt., USA).
(§3) GI50: The mean concentration that causes 50% inhibition of cell growth (Growth Inhibition 50%). The calculation of the value is based on the formula: (Tt72x)−(Ct24)/(Ct72)-(Ct24)×100=50
(§4) TGI: The mean concentration that causes 100% inhibition of cell growth (Total Growth Inhibition). The value is calculated according to the formula: (Tt72x)−(Ct24)/(Ct72)−(Ct24)×100=0
(§5) IC50: The mean concentration that kills 50% of the cells (Inhibition Concentration 50%). The value is calculated according to the formula: (Tt72x)−(Ct24)/(Ct24)×100=[…]

Data set [2] deals with UWB1.289 human ovarian cancer cell line (mutant BRCA1). Put plainly: MTT cytostatic-cytotoxic activity, UWB1.289. The format is cell-based. As to conditions: for GI50 / IC50: Homo sapiens; for GI50: UWB1289, 48 h; for GI50 / TGI: UWB1.289, 48 h treatment; for IC50: UWB1289, UWB1.289, 48 h treatment, kills 50% of the cells. The procedure: Also, UWB1.289 cells have mutated the p53 tumor suppressor gene and positive Wilms' tumor protein (WT) expression, have no functional BRCA1 gene and are positive for the expression of cytokeratin 7 (CK-7), calretinin and Wilms' tumor protein (WT). Finally they are sensitive to ionizing radiation.
as §1, §2, §3, §4, §5

The nature of a further data set: in vivo. The settings on record: both sexes, mouse, in vivo, ip; C57BI/6 mice, acute toxicity. On the procedure: (§6) The acute toxicity of the compounds was assessed from lethality by testing different concentrations, starting at 100mg/kg. […] For intraperitoneal (i.p.) treatment, stock solutions of the tested compounds were prepared immediately before use. They were suspended in corn oil in the desired concentration following initial dissolution in 10% dimethylsulfoxide (DMSO). C57BI/6 male and female were used for toxicity studies. Mice were kept under conditions of constant temperature and humidity in sterile cages with water and food.

The subject of another data set is C57BI/6 mice. Put plainly: in vivo. The settings on record: i.p., acute toxicity. On the procedure: as §6
Data set [3] concerns MOLT-4 human acute T-leukemia cell line. Put plainly: MTT cytostatic-cytotoxic activity, MOLT-4. The settings on record: MOLT-4, 48 h treatment; for GI50 / IC50: Homo sapiens; for IC50: kills 50% of the cells. It is filed as cell-based.
Data set [4] deals with A-549 human lung carcinoma cell line. In words: MTT cytostatic-cytotoxic activity, A-549. The format is cell-based. As to conditions: for TGI: A-549, 48 h treatment; for GI50 / IC50: Homo sapiens, A549, A-549, 48 h treatment; for IC50: kills 50% of the cells.
For data set [5], the system named is T-47D human breast cancer cell line. In words: MTT cytostatic-cytotoxic activity, T-47D. The settings on record: 48 h treatment; for GI50 / IC50: Homo sapiens, T47D; for GI50: 48 h; for IC50: kills 50% of the cells. It is filed as cell-based.

As a reminder, the GI50 is the concentration that inhibits growth by half. By IC50 is commonly meant the midpoint of a concentration-inhibition curve. A word on the TGI: it is the concentration at which net growth stops. For orientation: LD50 means the dose at which mortality reaches 50%. A lower LD50 goes with greater toxicity. As for `COc1cc(Cc2nnc3sc(/C=C/c4ccc(F)cc4)nn23)c(S(=O)(=O)N(C)C)cc1OC` [TS25, 3-[2-(N,N-dimethylsulfamoyl)-4,5-dimethoxybenzyl]-6-(E)-4-fluorostyryl-1,2,4-triazolo[3,4-b]-1,3,4-thiazole], the GI50 in data set [1] turned out to be 5 µM; in data set [2], 2 µM; in data set [3] it was 16 µM; in data set [4], 11 µM; in data set [5] it was 12 µM. Moreover, the IC50 in data set [1] stood at 36 µM; in data set [2], 60 µM; in data set [3], 78 µM; in data set [4], 87 µM; in data set [5] it was 76 µM. Besides, the TGI was 12 µM in data set [1]; 4 µM in data set [2]; 29 µM in data set [3]; 56 µM in data set [4]; 34 µM in data set [5]. This molecule also had an LD50 in the data set “in vivo” of 345 mg/kg. The LD10 in the data set on C57BI/6 mice is over 500 mg/kg.
In the case of `COc1cc(Cc2nnc3sc(/C=C/c4ccc(Cl)cc4)nn23)c(S(=O)(=O)N(C)C)cc1OC` [TS26, 3-[2-(N,N-dimethylsulfamoyl)-4,5-dimethoxybenzyl]-6-(E)-4-chlorostyryl-1,2,4-triazolo[3,4-b]-1,3,4-thiazole], the concentration for 50% growth inhibition (GI50) turned out to be 11 µM in data set [1]; 8 µM in data set [2]; 32 µM in data set [3]; 20 µM in data set [4]; 78 µM in data set [5]. Moreover, the IC50 in data set [1] was 54 µM; in data set [2], 72 µM; in data set [3] it was over 100 µM; in data set [4] it was over 100 µM; in data set [5] it was over 100 µM. For the same molecule, the total growth inhibition concentration (TGI) in data set [1] was 37 µM; in data set [2] it was 21 µM; in data set [3], 81 µM; in data set [4], 90 µM; in data set [5] it was over 100 µM. The LD50 in “in vivo” came to 365 mg/kg. This molecule also gave an LD10 in the data set on C57BI/6 mice of over 500 mg/kg.
Consider `COc1ccc(Cc2nn3c(Cc4cc(OC)c(OC)cc4S(=O)(=O)N(C)C)nnc3s2)cc1` [TS50, 3-[2-(N,N-dimethylsulfamoyl)-4,5-dimethoxybenzyl]-6-(4-methoxybenzyl)-1,2,4-triazolo[3,4-b]-1,3,4-thiazole], for which the GI50 turned out to be 16 µM in data set [1]; 30 µM in data set [2]; 10 µM in data set [3]; 35 µM in data set [4]; 28 µM in data set [5]. Besides, the IC50 in data set [1], in data set [2], in data set [3], in data set [4] and in data set [5] was over 100 µM throughout. For the same molecule, the TGI in data set [1], in data set [2], in data set [3], in data set [4] and in data set [5] was over 100 µM throughout. The 50% lethal dose (LD50) in the data set “in vivo” and with C57BI/6 mice was over 500 mg/kg in each case. The LD10 with C57BI/6 mice was over 500 mg/kg.
Turning to `COc1cc(Cc2nnc3sc(-c4ccccc4N)nn23)c(S(=O)(=O)N(C)C)cc1OC` [TS57, 3-[2-(N,N-dimethylosulfamoyl)-4,5-dimethoxybenzyl]-6-(2-aminophenyl)-1,2,4-triazolo[3,4-b]-1,3,4-thiazole], the GI50 in data set [1] is 85 µM; in data set [2] it was over 100 µM; in data set [3], 94 µM; in data set [4], over 100 µM; in data set [5], over 100 µM. Besides, the IC50 in data set [1], in data set [2], in data set [3], in data set [4] and in data set [5] was over 100 µM throughout. The total growth inhibition concentration (TGI) in data set [1], in data set [2], in data set [3], in data set [4] and in data set [5] was over 100 µM each time. Besides, the LD50 in “in vivo” and with C57BI/6 mice was over 500 mg/kg each time. In the data set on C57BI/6 mice, this molecule yielded an LD10 of over 500 mg/kg.
As to `COc1cc(Cc2nnc3sc(Cc4ccccc4)nn23)c(S(=O)(=O)N(C)C)cc1OC` [TS62, 3-[2-(N,N-dimethylsulfamoyl)-4,5-dimethoxybenzyl]-6-benzyl-1,2,4-triazolo[3,4-b]-1,3,4-thiazole], the GI50 was 8 µM in data set [1]; 13 µM in data set [2]; 7 µM in data set [3]; 15 µM in data set [4]; 24 µM in data set [5]. Also, the IC50 in data set [1], in data set [2], in data set [3], in data set [4] and in data set [5] was over 100 µM each time. The concentration for total growth inhibition (TGI) was 64 µM in data set [1]; over 100 µM in data set [2]; 55 µM in data set [3]; 71 µM in data set [4]; over 100 µM in data set [5]. Besides, the LD50 in the data set “in vivo” is 480 mg/kg. This molecule showed an LD10 in the data set with C57BI/6 mice of over 500 mg/kg.
For `COc1cc(Cc2nnc3sc(-c4ccc(Cl)cc4)nn23)c(S(=O)(=O)N(C)C)cc1OC` [TS63, 3-[2-(N,N-dimethylsulfamoyl)-4,5-dimethoxybenzyl]-6-(4-chlorophenyl)-1,2,4-triazolo[3,4-b]-1,3,4-thiazole], the GI50 in data set [1] was 8 µM; in data set [2], 30 µM; in data set [3], 6 µM; in data set [4], 14 µM; in data set [5], 27 µM. Besides, the half-maximal inhibitory concentration (IC50) in data set [1] is over 100 µM; in data set [2], over 100 µM; in data set [3] it was 78 µM; in data set [4] it was 92 µM; in data set [5], over 100 µM. The total growth inhibition concentration (TGI) turned out to be 64 µM in data set [1]; 50 µM in data set [2]; 45 µM in data set [3]; 36 µM in data set [4]; 55 µM in data set [5]. In “in vivo”, the median lethal dose (LD50) was 430 mg/kg. This molecule also had an LD10 with C57BI/6 mice of over 500 mg/kg.
